Source: publication PMC9650711, “Hydroxyl-Rich Hydrophilic Endocytosis-Promoting Peptide with No Positive Charge” (Journal of the American Chemical Society, 2022)

How the values were obtained:
Assay type in all cases: cell-based, human
[1] = system: RB-EPP6 uptake in U87 cells; assay: Endocytosis inhibitors treatment, RB-EPP6 uptake by flow cytometry; conditions: inhibitor 1 h, then 500 nM RB-EPP6 1 h; for inhibition of RB-EPP6 uptake: flow cytometry median intensity; for effect on RB-EPP6 uptake (cholesterol extraction / binding): flow cytometry
Procedure: (§1) Flow cytometry experiments
(§2) To perform flow cytometry experiments, a NovoCyte flow cytometer (NovoExpress) was used.
(§3) Quantification of fluorescence intensity was achieved using the Novoxpress software. Fifty thousand cells were analyzed for each condition. A green fluorescent dye used for DNA staining, YOYO, was included in all the flow cytometry experiments, serving as a cell live/dead indicator.
(§4) For the YOYO-only group, the cells were treated with trypsin for 5-10 min and subsequently fixed in a 1.5 mL centrifuge tube using 4% paraformaldehyde at room temperature for 15 min. Then, fixed cells were washed with PBS once and were permeabilized using 90% MeOH on ice for 15 min. For all conditions, cells were incubated with YOYO in a phenol-free medium for half an hour, and then were centrifuged to remove the YOYO solution and resuspended in a fresh phenol-free medium before performing flow cytometry.
For general incubation, 300 k U87 cells were seeded in a 35×10 mm culture dish and incubated overnight under normal culturing conditions. Stock solutions of Dye-EPPs were made in DMSO to reach a concentration of 500 μM. Fresh cell culture medium was used to dilute the stock solution to 500 nM. Cells were incubated with RB-EPPs for desired time periods, followed by a one-time wash with phenol-free fresh culture medium before measurements. […]
(§5) Endocytosis inhibitors treatment
U87 cells were incubated with different endocytosis inhibitors for 1 h. Then, the media was replaced with fresh media containing 500 nM of RB-EPP6. After 1 h, a trypsin-EDTA solution (0.05%, Sigma) was added to detach the cells. The cells were collected by centrifugation and resuspended in phenol-free media. […]
Stock solutions of trackers for mitochondria, lysosome, and ER were diluted with cell culture medium into 100 nM, 500 nM, and 4 μM, respectively. RB-EPP6 was added to each working solution at 500 nM. U87 cells were incubated with the trackers and RB-EPP6 for 1 h and then washed once before confocal imaging.

U87 cells [2] = assay: Uptake and nuclear accumulation of TO- and EB-labeled EPPs, confocal; conditions: confocal imaging, TO conjugates 500 nM, EB-EPP6 2 ug/mL or 6 hr
Procedure: Confocal imaging experiments
To image the cells, a Zeiss 880 inverted confocal laser scanning microscope (Carl Zeiss, Germany) was used. Image acquisition and analyses were carried out using the manufacturer’s software (ZEN, Carl Zeiss). Quantification of fluorescence intensity in single cells was performed using Fiji […]
as §1, §2, §3
[…]
2 μL of RB-EPP (in DMSO) was added to the solution at a concentration of 500 μM. […] Samples were collected from both phases and quantified by Analytical HPLC separately. […]

[3] = system: RB-EPP6 uptake in U87 cells; assay: FIBCD1 competition assay with CSA, RB-EPP6 uptake by flow cytometry; conditions: 500 nM RB-EPP6 together with CSA, 1 h
Procedure: experiment. Poly-A selective RNA-seq libraries were prepared using the NEB NextUltra II kit (New England Biolabs) and sequenced on an Illumina NextSeq500 with 2×75 pair-end reads. The obtained sequencing data was preprocessed using fastp, aligned using STAR, and counted using featureCounts. Differentially expressed genes were identified using DESeq2. The sequence data and analysis reports are deposited in the GEO repository (Accession # GSE202764) […]
U87 cells were incubated with 500 nM RB-EPP6 and YOYO, together with chondroitin sulfate (CSA) in complete media. After 1 h, trypsin was used to detach the cells. Cell pellets were collected by centrifugation. Fresh phenol-free medium was added to each condition. […]
Human FIBCD1 cDNA with an MYC-DDK tag was ordered from Origene (#RC206180) and was expressed using the mammalian expression system kit ExpiCHOTM (#A29133) as generally described by MAN0014337. […] The obtained full-length FIBCD1 was quantified using BCA.
Fluorescence polarization (FP) assay
Solutions of RB-EPPs (in 1% BSA/PBST) were added to different concentrations of full-length FIBCD1 (in 1% BSA/PBST). […] The solutions were incubated at room temperature for 30 minutes on an orbital shaker, and the fluorescence polarization values were quantified using a BioTek Synergy H1 plate reader, with an FP filter set (excitation 530/25, emission 590/35). […]

U87 cells [4] = assay: Resazurin assay, cell viability
Procedure: Time-dependent uptake experiment
U87 cells were incubated with RB-EPP6 at 500 nM for 1 h. After washing with fresh medium once, the cells were kept in the 5% CO2 incubator at 37 °C for desired time durations before […]
Temperature-dependent uptake experiment
U87 cells were kept in a 4 °C cold room for half an hour. After that, cells were incubated with RB-EPP 6 at 500 nM at 4 °C. Cells in the control group were maintained and incubated at 37 °C. After 1 h, cells were washed with fresh medium once before confocal imaging.
All the RB-EPPs were diluted in PBS to 100 μM. 700 μL of the testing peptides were added to the apical chamber of a Corning BioCoat Pre-coated PAMPA Plate. 200 μL PBS was added to the basolateral chamber. The plate was kept at 37 °C with 5% CO2 for 5 h, after which 80 μL samples were collected from each chamber for RB fluorescence intensity reading using the Synergy H1 […]
as §5
U87 cells were incubated with different endocytosis inhibitors for 1 h. Then, the media was replaced with fresh media containing 500 nM of RB-EPP6. After 1 h, a trypsin-EDTA solution (0.05%, Sigma) was added to detach the cells. […]
Resazurin was dissolved in DI water at a stock concentration of 6 mg/mL. […] The fluorescence intensity of the samples was recorded by a plate reader at 532 nm excitation and 585 nm emission wavelengths. […]

[5] = system: RB-EPP6 uptake in U87 cells; assay: Heparin-binding assay, RB-EPP6 uptake by flow cytometry; conditions: heparin sulfate 10-200 μg/mL 30 min, then with 500 nM RB-EPP6 1 h

O=C(N/N=C/c1ccc(O)c(O)c1)c1cc2ccccc2cc1O [Dynasore]
inhibition of RB-EPP6 uptake [1]: 86%

CC[n+]1c(-c2ccccc2)c2cc(N)ccc2c2ccc(N)cc21 [EB, ethidium bromide]
uptake / intracellular localisation (U87 cells [2]): did not show any uptake

O=C1NC(=NS(=O)(=O)c2cccc3ccccc23)S/C1=C\c1ccc(Br)cc1 [Pitstop 2]
inhibition of RB-EPP6 uptake [1]: 9%

C=C1[C@@H](C)[C@H]2[C@H](Cc3ccccc3)NC(=O)[C@]23[C@H](OC(C)=O)/C=C/[C@@](C)(O)C(=O)[C@@H](C)C/C=C/[C@H]3[C@@H]1O [cytochalasin D]
inhibition of RB-EPP6 uptake [1]: 38%

CCCCC[C@@H](O)[C@H]1C(=O)O[C@H](C)[C@@H](O)/C=C/C=C/C=C/C=C/C=C(\C)[C@@H](O)C[C@H](O)C[C@H](O)C[C@H](O)C[C@H](O)C[C@H](O)C[C@@H]1O [filipin]
effect on RB-EPP6 uptake (cholesterol extraction / binding) [1]: did not inhibit

c1ccc2c(c1)Nc1ccccc1S2 [phenothiazine]
inhibition of RB-EPP6 uptake [1]: no inhibition

COC[C@H]1OC(=O)c2coc3c2[C@@]1(C)C1=C(C3=O)[C@@H]2CCC(=O)[C@@]2(C)C[C@H]1OC(C)=O [wortmannin]
inhibition of RB-EPP6 uptake [1]: 48%

chondroitin sulfate A [CSA]
effect on RB-EPP6 uptake (competitive uptake) [3]: inhibit RB-EPP6 uptake in a concentration-dependent manner | effect on cell viability (U87 cells [4]): without affecting cell viability

heparin sulfate
effect on RB-EPP6 uptake [5]: did not affect

methyl-β-cyclodextrin
effect on RB-EPP6 uptake (cholesterol extraction / binding) [1]: did not inhibit
